Assay results: patent US20240315991A1, “USES OF HNF4 ALPHA AGONISTS” (Sanford Burnham Prebys Medical Discovery Institute, priority 2023, published 2024)

Columns and labels:
SDHA mRNA = assay: RT-PCR of mouse liver, SDHA; format: in vivo; settings: HFD+NCT vs HFD, FIGS. 3G and 3H
Method: (§1) NCT oral administration. Four-week-old male C57BL/6J (JAX cat #000664) mice were purchased from Jackson laboratory and were maintained in a 12 h light/dark cycle throughout the experiment. Prior to the experiments, mice were acclimated for 2 weeks. Six-week-old mice with similar body weights were randomized to a normal diet (NC), a high fat diet (HFD) (Research Diets, cat #D12492 60 kcal % fat) or HFD containing 4000 ppm NCT (HFD+NCT) (Research Diets, 60 kcal % fat+4000 ppm NCT), which was calculated to provide approximately 400 mg/kg/d NCT. HFD chow containing NCT was made with gray dye to distinguish it from regular HFD chow that had green dye. Mice for each treatment group were placed in separate cages. Equal amounts of fresh chow were provided every week to all mice. Body weight gain and food intake were measured every week for 10 weeks. After 10 weeks of chow treatment, mice were sacrificed for analysis. […]
(§2) RT-PCR. […] Quantitative real time PCR (RT-PCR) analysis was performed using SYBR® Select Master Mix (Applied Biosystems) and an ABI 7900HT thermal cycler (Applied Biosystems, Thermo Fisher Scientific). Ct values were normalized to 18s rRNA and are expressed as fold change over samples from mice fed NC or cultured human hepatocytes without NCT.

cytochrome C mRNA = assay: RT-PCR of primary human hepatocytes, cytochrome C; format: cell-based; settings: 0 μM vs. each concentration of NCT, FIG. 3I
Method: Primary human hepatocytes. Experiments with primary human hepatocytes were performed by CN-Bio (Cambridge, UK). Briefly, primary human hepatocytes (PHHs), human Kupffer cells (HKs) and human stellate cells (HSCs) were seeded onto CN-Bio's PhysioMimix LC12 MPS culture plates at 6×10^5 cells for PHHs and 6×10^4 cells for HKs and HSCs in 1.6 ml of CN-Bio's HEP-lean media with 5% FCS. Throughout the experiment the cells were maintained at a flow rate of 1 μl/s. After 24 hours (Day 1) of seeding, the media was changed to HEP-lean media and the cells were incubated until day 4 to allow the cells to form microtissues. At day 4 post seeding, media was changed to HEP-fat media and treated with DMSO or NCT (5, 15, and 40 μM). Media was replaced on days 6 and 8. Cells were harvested on day 10 for RNA extraction and culture media was collected for ELISA analysis.
as §2

PPARγ mRNA = assay: RT-PCR of mouse liver, PPARγ; format: in vivo; settings: HFD+NCT vs HFD, to the level of mice on normal chow, FIG. 3N
Method: as §1, §2

O=C(/C=C/c1ccc(O)c(O)c1)NCCc1ccc(O)cc1 [NCT, N-trans caffeoyltyramine]
SDHA mRNA in mouse liver (SDHA mRNA): increase
cytochrome C mRNA levels in primary human hepatocytes (cytochrome C mRNA): non-significant
PPARγ expression in liver (PPARγ mRNA): reduce
